Measured values taken from patent publication US20040266623A1, “SYNERGISTIC QUINCLORAC HERBICIDAL COMPOSITIONS” (priority 2003, published 2004).

System: white clover
Assay: Greenhouse pot test, postemergent spray, visual control rating converted to percent control
Format: in vivo
How it was run: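 Greenhouse pots in soilless medium receive a 43.46 gal/acre spray. Control is scored visually at 24, 48, 72 HAT and 7, 14, 21 DAT, 1–9 scale converted to percent.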

## O=C(O)c1c(Cl)ccc2cc(Cl)cnc12 [Quinclorac, 3,7-dichloro-8-quinolinecarboxylic acid]
Test 1, 7 DAT, 0.18 lbs/A
  % Control Clover: 33.3%
  Control (1-9) Clover: 3
Test 1, 7 DAT, 0.375 lbs/A
  % Control Clover: 33.3%
  Control (1-9) Clover: 3
Test 1, 7 DAT, 0.75 lbs/A
  % Control Clover: 33.3%
  Control (1-9) Clover: 3
Test 1, 14 DAT, 0.18 lbs/A
  % Control Clover: 100.0%
  Control (1-9) Clover: 9
Test 1, 14 DAT, 0.375 lbs/A
  % Control Clover: 100.0%
  Control (1-9) Clover: 9
Test 1, 14 DAT, 0.75 lbs/A
  % Control Clover: 88.9%
  Control (1-9) Clover: 8
Test 1, 24 HAT, 0.18 lbs/A
  % Control Clover: 11.1%
  Control (1-9) Clover: 1
Test 1, 24 HAT, 0.375 lbs/A
  % Control Clover: 11.1%
  Control (1-9) Clover: 1
Test 1, 24 HAT, 0.75 lbs/A
  % Control Clover: 11.1%
  Control (1-9) Clover: 1
Test 1, 48 HAT, 0.18 lbs/A
  % Control Clover: 22.2%
  Control (1-9) Clover: 2
Test 1, 48 HAT, 0.375 lbs/A
  % Control Clover: 33.3%
  Control (1-9) Clover: 3
Test 1, 48 HAT, 0.75 lbs/A
  % Control Clover: 33.3%
  Control (1-9) Clover: 3
Test 2, 7 DAT, 0.18 lbs/A
  % Control Clover: 66.7%
  Control (1-9) Clover: 6
Test 2, 7 DAT, 0.375 lbs/A
  % Control Clover: 77.8%
  Control (1-9) Clover: 7
Test 2, 7 DAT, 0.75 lbs/A
  % Control Clover: 77.8%
  Control (1-9) Clover: 7
Test 2, 14 DAT, 0.18 lbs/A
  % Control Clover: 100.0%
  Control (1-9) Clover: 9
Test 2, 14 DAT, 0.375 lbs/A
  % Control Clover: 100.0%
  Control (1-9) Clover: 9
Test 2, 14 DAT, 0.75 lbs/A
  % Control Clover: 100.0%
  Control (1-9) Clover: 9
Test 2, 24 HAT, 0.18 lbs/A
  % Control Clover: 22.2%
  Control (1-9) Clover: 2
Test 2, 24 HAT, 0.375 lbs/A
  % Control Clover: 22.2%
  Control (1-9) Clover: 2
Test 2, 24 HAT, 0.75 lbs/A
  % Control Clover: 22.2%
  Control (1-9) Clover: 2
Test 2, 72 HAT, 0.18 lbs/A
  % Control Clover: 33.3%
  Control (1-9) Clover: 3
Test 2, 72 HAT, 0.375 lbs/A
  % Control Clover: 33.3%
  Control (1-9) Clover: 3
Test 2, 72 HAT, 0.75 lbs/A
  % Control Clover: 33.3%
  Control (1-9) Clover: 3
Test 4, 7 DAT, 0.18 lbs/A
  % Control Clover: 33.3%
  Control (1-9) Clover: 3
Test 4, 7 DAT, 0.375 lbs/A
  % Control Clover: 44.4%
  Control (1-9) Clover: 4
Test 4, 7 DAT, 0.75 lbs/A
  % Control Clover: 33.3%
  Control (1-9) Clover: 3
Test 4, 14 DAT, 0.18 lbs/A
  % Control Clover: 33.3%
  Control (1-9) Clover: 3
Test 4, 14 DAT, 0.375 lbs/A
  % Control Clover: 55.6%
  Control (1-9) Clover: 5
Test 4, 14 DAT, 0.75 lbs/A
  % Control Clover: 44.4%
  Control (1-9) Clover: 4
